Source: ChEMBL document CHEMBL3232937
Activity calls are given as the source filed them. No cut-off for these calls is given here.

Legend:
[1] = molecular target: T1, Casein kinase I isoform delta (Homo sapiens, UniProt P48730); conditions: at 10 µM
Target sequence in this assay (P48730 whole entry, looked up, canonical isoform): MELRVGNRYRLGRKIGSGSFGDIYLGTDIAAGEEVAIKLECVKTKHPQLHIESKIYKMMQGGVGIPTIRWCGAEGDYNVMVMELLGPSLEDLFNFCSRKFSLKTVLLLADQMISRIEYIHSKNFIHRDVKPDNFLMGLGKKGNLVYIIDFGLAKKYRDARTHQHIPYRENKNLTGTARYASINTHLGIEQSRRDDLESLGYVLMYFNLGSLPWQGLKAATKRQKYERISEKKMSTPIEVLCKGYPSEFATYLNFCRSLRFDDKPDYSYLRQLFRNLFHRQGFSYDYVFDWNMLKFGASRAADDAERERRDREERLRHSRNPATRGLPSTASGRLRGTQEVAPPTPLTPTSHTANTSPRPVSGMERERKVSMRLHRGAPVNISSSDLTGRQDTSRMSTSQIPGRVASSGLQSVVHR
Description: Inhibition of human recombinant CK-1delta using casein as substrate at 10 uM after 60 mins by Kinase-Glo assay relative to control

[2] = molecular target: T1, Casein kinase I isoform delta; assay: Inhibition of human recombinant CK-1delta using casein as substrate after 60 mins by Kinase-Glo assay
Target sequence in this assay (P48730 whole entry, canonical isoform): as the sequence (P48730 whole entry, looked up, canonical isoform) above

[3] = pampa
[4] = molecular target: T1, Casein kinase I isoform delta; assay: Competitive inhibition of human recombinant CK-1delta using casein as substrate at 0.25 to 0.5 uM by Lineweaver-Burk plot analysis in presence of ATP
Target sequence in this assay (P48730 whole entry, looked up, canonical isoform): as above

inhibition [1] [%]	SMILES	other results
> 60	COc1ccc2nc(NC(=O)Cc3ccc(Cl)cc3)sc2c1	
	CCOC(=O)c1sc(NC(=O)CNC(=O)Cc2ccccc2)nc1C	IC50 [2]: 10.1 µM
> 60	COc1ccccc1CC(=O)Nc1nc2ccc(C(F)(F)F)cc2s1	permeability [3]: 11.2 ×10⁻⁶ cm/s
> 60	CCOc1ccc2nc(NC(=O)Cc3cc(OC)c(OC)c(OC)c3)sc2c1	
> 60	O=C(Cc1ccc(Cl)cc1)Nc1nc2ccc(C(F)(F)F)cc2s1	permeability [3]: 9.6 ×10⁻⁶ cm/s
> 60	COc1cccc(CC(=O)Nc2nc3ccc(OC)cc3s2)c1	
	COc1cc(OC)c(C=C2C(=O)Nc3ccccc32)c(OC)c1	inhibition [4]: Active
> 60	CCOc1ccc2nc(NC(=O)Cc3ccccc3Cl)sc2c1	
> 60	COc1ccccc1CC(=O)Nc1nc2ccc(Cl)cc2s1	
> 60	COc1ccccc1CC(=O)Nc1nc2ccc(C)cc2s1	
> 60	COc1ccc(CC(=O)Nc2nc3ccc(OC)cc3s2)cc1	
> 60	COc1ccccc1CC(=O)Nc1nc2ccc(OC(F)(F)F)cc2s1	
> 60	CC(=O)c1sc(NC(=O)Cc2cccc(Cl)c2)nc1C	IC50 [2]: 1.12 µM
> 60	Cc1ccc2nc(NC(=O)Cc3cccc(Cl)c3)sc2c1	permeability [3]: 5.6 ×10⁻⁶ cm/s
> 60	COc1ccc2nc(NC(=O)Cc3ccc(Cl)c(Cl)c3)sc2c1	
> 60	O=C(Cc1ccc(Cl)c(Cl)c1)Nc1nc2ccc(C(F)(F)F)cc2s1	permeability [3]: 1.4 ×10⁻⁶ cm/s
> 60	CCOc1ccc2nc(NC(=O)Cc3cccc(OC)c3)sc2c1	
	CN(C)CCCN1c2ccccc2Sc2ccccc21 [PROMAZINE]	permeability [3]: 12.7 ×10⁻⁶ cm/s
> 60	COc1cc(CC(=O)Nc2nc3ccc(C(F)(F)F)cc3s2)cc(OC)c1OC	permeability [3]: 7.2 ×10⁻⁶ cm/s
> 60	COc1ccc2nc(NC(=O)Cc3ccccc3Cl)sc2c1	
> 60	COc1cc(CC(=O)Nc2nc3ccc(OC(F)(F)F)cc3s2)cc(OC)c1OC	permeability [3]: 2.6 ×10⁻⁶ cm/s
	CN1C(C(=O)Nc2ccccn2)=C(O)c2ccccc2S1(=O)=O [PIROXICAM]	permeability [3]: 0.5 ×10⁻⁶ cm/s
	CS(=O)(=O)c1ccc2nc(NC(=O)Cc3cccs3)sc2c1	IC50 [2]: 2.69 µM
> 60	CCOc1ccc2nc(NC(=O)Cc3ccc(Cl)cc3)sc2c1	IC50 [2]: 1.11 µM
> 60	O=C(Nc1nc2ccccc2s1)C(c1ccccc1)c1ccccc1	
> 60	O=C(CC(c1ccccc1)c1ccccc1)Nc1nc2ccccc2s1	
	CCOC(=O)c1sc(NC(=O)CNC(=O)CC(c2ccccc2)c2ccccc2)nc1C	IC50 [2]: 3.79 µM
> 60	O=C(Cc1ccc(Cl)c(Cl)c1)Nc1nc2ccc(OC(F)(F)F)cc2s1	

inhibition [1] [%]	SMILES	other results
	CCOC(=O)c1sc(NC(=O)CNC(=O)c2ccccc2)nc1C	IC50 [2]: 7.45 µM
> 60	CCOc1ccc2nc(NC(=O)Cc3ccc(OC)cc3)sc2c1	
	CCOC(=O)c1sc(NC(=O)CNC(=O)c2ccc(N3CCOCC3)cc2)nc1C	IC50 [2]: 9.31 µM
> 60	O=C(Cc1ccc(Cl)cc1)Nc1nc2ccccc2o1	IC50 [2]: 4.11 µM
> 60	COc1ccc2nc(NC(=O)Cc3cccc(Cl)c3)sc2c1	
> 60	COc1ccc2nc(NC(=O)Cc3ccccc3OC)sc2c1	
> 60	O=C(CCc1cccc(Cl)c1)Nc1nc2ccccc2s1	
> 60	CCOc1ccc2nc(NC(=O)C(c3ccccc3)c3ccccc3)sc2c1	
> 60	O=C(Cc1cccc(Cl)c1)Nc1nc2ccc(C(F)(F)F)cc2s1	permeability [3]: 11.2 ×10⁻⁶ cm/s
> 60	O=C(Cc1ccccc1Cl)Nc1nc2ccc(C(F)(F)F)cc2s1	
> 60	COc1ccccc1CC(=O)Nc1nc2ccc(F)cc2s1	
> 60	CCOc1ccc2nc(NC(=O)Cc3cccc(Cl)c3)sc2c1	
> 60	COc1ccccc1CC(=O)Nc1nc2ccc(Br)cc2s1	
> 60	COc1ccc(NC(=O)Nc2nc3ccc(C(F)(F)F)cc3s2)cc1	
> 60	O=C(Cc1ccccc1)Nc1nc2ccc(C(F)(F)F)cc2s1	permeability [3]: 4.4 ×10⁻⁶ cm/s
> 60	COc1cccc(CC(=O)Nc2nc3ccc(C(F)(F)F)cc3s2)c1	permeability [3]: 11.2 ×10⁻⁶ cm/s
> 60	CCOc1ccc2nc(NC(=O)Cc3ccc(Cl)c(Cl)c3)sc2c1	
> 60	CCOC(=O)c1sc(NC(=O)COCc2ccccc2)nc1C	IC50 [2]: 7.38 µM
> 60	CCOc1ccc2nc(NC(=O)Cc3ccccc3OC)sc2c1	
> 60	COc1ccc(OC)c(CC(=O)Nc2nc3ccc(C(F)(F)F)cc3s2)c1	
	CNCCCN1c2ccccc2CCc2ccccc21 [DESIPRAMINE]	permeability [3]: 14.6 ×10⁻⁶ cm/s
> 60	O=C(Cc1ccccc1)Nc1nc2ccccc2s1	
> 60	O=C(Cc1cccc(Cl)c1)Nc1nc2ccc(OC(F)(F)F)cc2s1	
> 60	COc1ccc(CC(=O)Nc2nc3ccc(C(F)(F)F)cc3s2)cc1	permeability [3]: 14.6 ×10⁻⁶ cm/s
20	O=C(Cc1cccc(Cl)c1)Nc1nncs1	
> 60	COc1ccc2nc(NC(=O)Cc3cc(OC)c(OC)c(OC)c3)sc2c1	IC50 [2]: 1.12 µM
> 60	O=C(Cc1cccc(C(F)(F)F)c1)Nc1nc2ccc(C(F)(F)F)cc2s1	permeability [3]: 6.4 ×10⁻⁶ cm/s
